In assay [1] the target is T1, Mos1 transposase (MOS1) (Drosophila mauritiana, UniProt Q7JQ07).
T1 construct: involving the full-length Mos1 transposase (MOS1) was recently solved; made in house
Put plainly: MOS1 in vitro excision assay. It counts as biochemical, D. mauritiana. The settings on record: for inhibition at 25 µM: DMSO control as reference, read-out: inhibition of in vitro excision reaction; for IC50: concentration range, sigmoid dose-response fit. Here is the method: Basic excision reaction mixtures contained 10 mM Tris-HCl (pH 9), 50 mM NaCl, 20 mM MgCl2, 0.5 mM EDTA, 0.5 mM DTT, 100 ng BSA, 600 ng of super-coiled pBC-3T3, and 80 nM MBP-MOS1 (added last) in a volume of 20 µl. Molecules (25 or 10 µM, as specified) or DMSO (2%) were added to the reaction mixtures before the transposase. The reactions were allowed to proceed at 30°C for 30 min before 2 µl of stop solution (loading buffer) were added. The reaction mixtures were then incubated at 65°C for 10 min. Each reaction was analysed by overnight electrophoresis at 2.7 V/cm on a TAE-buffered 1% agarose gel with ethidium bromide (0.3 mg/ml). After electrophoresis, the gel was photographed on a transilluminator. ImageGauge 4.22 software (Fujifilm) was used to quantify the bands. Each condition was tested at least twice.
The ability of the selected molecules to inhibit excision was tested in vitro using the pBC-3T3 plasmid as the transposon donor. MOS1 triggers the excision of the pseudo-Mos1 from the plasmid producing two linear DNA fragments, the transposon and the plasmid backbone, together with intermediate products (open circle plasmids which contained single strand nicks and linear plasmids which contained a double strand nick at one ITR). After excision, the transposon could be reintegrated, making it difficult to detect in electrophoresis. The activity of the molecules was measured by quantifying the plasmid backbone, the end product of the reaction. The assays were performed with final concentrations of 25 and 10 µM molecules. Controls correspond to assays performed without molecule but with DMSO. […] Reactions were performed at least twice for each selected molecules (leachianol G, leachianol F, quadrangularin A, hopeaphenol, vitisin B and pallidol) and the excision activity is reported in figure 7B . […] The six selected molecules were then tested for the integration step of Mos1 transposition.

Assay [2] concerns the target T1, Mos1 transposase (MOS1). Kind of assay: MOS1 in vitro ITR integration assay. The class given is biochemical, D. mauritiana. To be noted: for inhibition of the integration step: 25 and 10 µM, molecules added after formation of MOS1-ITR complexes. As for the experimental part: These assays were performed using pre-cleaved 3′ITRs (PC-ITR), i.e. ITRs in the configuration expected after excision. […]. Prior to annealing, the transferred strand (70-TS-PC) was 5′-end labelled using T4 polynucleotide kinase (Promega) and γ-^32P-ATP following the manufacturer's instructions. Oligonucleotides were provided by Eurofins MWG Biotech (Germany) or Eurogentec (Belgium). Reaction mixtures containing 10 mM Tris-HCl (pH 9), 50 mM NaCl, 1 mM DTT, 5% glycerol, 100 ng BSA, 100 nM of labelled PC-ITR and 100 nM MBP-MOS1 in a final volume of 20 µl were incubated at 30°C for 30 min. The pBC plasmid (which contained the cat gene, a hot-spot for Mos1 insertion) was then added to 30 ng/µL along with 5 mM MgCl2. Molecules (25 or 10 µM, as specified) or DMSO (2%) were added to the reaction mixtures along with the target DNA to estimate their effect on integration. Reactions were carried out for 3 hours at 30°C. 0.1 mg/ml proteinase K and 0.1% SDS were added to stop the reaction. DNA products were purified by phenol-chloroform extraction and ethanol precipitated using standard techniques. DNA products were resuspended in DNA loading buffer, then separated onto a 1% agarose gel in 1X TAE (Tris Acetate EDTA) buffer. The gel was dried onto a nitrocellulose membrane (Hybond N+, GE Healthcare), scanned using a Storm, and analysed with ImageQuant software. Signals were quantified using ImageQuant software. Efficiency of integration was calculated as the intensity of the integration signal divided by the intensity of free target signal plus integration signal. Each condition was tested at least twice.
The assay used for this step is similar to the HIV-1 IN concerted integration. Briefly, pre-cleaved labelled ITRs are used to form the integration complex. A super-coiled plasmid is used as target DNA. Integration events give a linear labelled plasmid, which can be detected. In these tests, the molecules are added after formation of MOS1-ITR complexes, along with a target plasmid to solely examine the integration inhibition. […] Controls correspond to assays performed without molecule but with DMSO. Reactions were performed at least twice for each selected molecule (leachianol G, leachianol F, quadrangularin A, hopeaphenol, vitisin B and pallidol) and the excision activity is shown in figure 8B .

The target in the next assay is HIV-1 IN (Human immunodeficiency virus type 1 group M subtype B, UniProt P04585). Kind of assay: HIV-1 IN in vitro concerted integration assay (processed or unprocessed donor DNA).

T1 sequence (Q7JQ07 whole entry): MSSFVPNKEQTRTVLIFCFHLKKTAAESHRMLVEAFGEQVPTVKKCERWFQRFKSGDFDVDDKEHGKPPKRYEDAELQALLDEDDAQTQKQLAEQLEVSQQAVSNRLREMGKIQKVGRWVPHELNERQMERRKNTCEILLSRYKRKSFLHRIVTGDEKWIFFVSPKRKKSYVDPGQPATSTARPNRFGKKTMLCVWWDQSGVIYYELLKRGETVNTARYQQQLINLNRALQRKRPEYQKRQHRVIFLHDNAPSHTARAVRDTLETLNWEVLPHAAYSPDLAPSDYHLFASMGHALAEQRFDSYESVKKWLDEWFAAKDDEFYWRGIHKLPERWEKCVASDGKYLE

As to `Oc1ccc([C@@H]2c3c(O)cc(O)cc3[C@H]3c4c(cc(O)cc4C2C2c4cc(O)cc5c4[C@H](c4cc(O)cc(O)c4[C@H]2c2ccc(O)cc2)[C@@H](c2ccc(O)cc2)O5)O[C@@H]3c2ccc(O)cc2)cc1` (stereo partly shown) [hopeaphenol], at Mos1 transposase (MOS1) [1], the inhibition at 25 µM is above 50% and the half-maximal inhibitory concentration (IC50) amounted to 8.5 µM. At Mos1 transposase (MOS1) [2], the IC50 was around 6.5 µM and the “inhibition of the integration step” value is listed as “significantly inhibited”. Also, the inhibition at 10 µM at HIV-1 IN (read-out: inhibition of concerted integration) is below 5%.
Regarding `Oc1ccc([C@@H]2c3c(O)cc(O)cc3[C@H]3[C@H](c4ccc(O)cc4)c4c(O)cc(O)cc4[C@@H]23)cc1` [pallidol], on Mos1 transposase (MOS1) [1], the inhibition at 25 µM is above 50% and inhibition was half-maximal at 8 µM (IC50). At Mos1 transposase (MOS1) [2], the IC50 is around 10 µM and the “inhibition of the integration step” value is “significantly inhibited”. In addition, the “inhibition of concerted integration from processed and unprocessed donor” value on HIV-1 IN (increasing concentrations) was “inhibited both activities”.

(Values after PMC3842960, “Natural Stilbenoids Isolated from Grapevine Exhibiting Inhibitory Effects against HIV-1 Integrase and Eukaryote MOS1 Transposase In Vitro Activities” (PLoS ONE, 2013).)
